In test [1] the target is T1, Carbonic anhydrase 13 (Mus musculus, UniProt Q9D6N1). Briefly: Inhibition of mouse carbonic anhydrase 13 assessed as 4-nitrophenyl phosphate hydrolysis.
For test [2], the target named is T1, Carbonic anhydrase 13. Description: Inhibition of mouse carbonic anhydrase 13 assessed as 4-nitrophenyl acetate hydrolysis.

T1 sequence (Q9D6N1 whole entry): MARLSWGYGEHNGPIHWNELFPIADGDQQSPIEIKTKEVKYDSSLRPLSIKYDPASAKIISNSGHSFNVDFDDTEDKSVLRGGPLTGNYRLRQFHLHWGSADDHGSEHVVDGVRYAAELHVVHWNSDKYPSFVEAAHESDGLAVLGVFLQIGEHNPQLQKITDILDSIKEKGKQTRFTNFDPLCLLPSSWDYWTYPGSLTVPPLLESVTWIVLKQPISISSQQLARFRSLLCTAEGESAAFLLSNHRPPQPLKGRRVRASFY

As a reminder, the IC50 is the midpoint of a concentration-inhibition curve. Turning to `CC(=O)Nc1nnc(S(N)(=O)=O)s1` [ACETAZOLAMIDE], the IC50 worked out at 1.05 µM on Carbonic anhydrase 13 [1] and 0.49 µM at Carbonic anhydrase 13 [2].

For the origin of these results see ChEMBL document CHEMBL1141547, “Investigations of the esterase, phosphatase, and sulfatase activities of the cytosolic mammalian carbonic anhydrase isoforms I, II, and XIII with 4-nitrophenyl esters as substrates” (Bioorg Med Chem Lett, 2008).
